Reference: PubChem BioAssay AID248 (DTP/NCI, 2004)
Inconclusive results and toxic doses are left out. Cut-off read from the data, not from the text of the source: active = T/C of 150% or more; inactive = T/C below 125%.

System: L1210 leukemia ip in BDF1 mice, survival T/C
Assay: NCI In Vivo Anticancer Drug Screen. Data for tumor model L1210 Leukemia (intraperitoneal) in B6D2F1 (BDF1) mice
Details: endpoint: mean survival time, higher = longer survival
Procedure, shortened: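 Transplanted-tumor mice were given test agent; controls received vehicle only. Survival readings from the two groups were divided (treated over control).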

[1] = dose: 50.0 mg/kg/injection, schedule: Q01DX001 (ip), vehicle: saline
[2] = dose: 100.0 mg/kg/injection, schedule: Q01DX001 (ip), vehicle: saline
[3] = dose: 100.0 mg/kg/injection, schedule: Q04DX003 (ip), vehicle: saline with Tween-80
[4] = dose: 200.0 mg/kg/injection, schedule: Q04DX003 (ip), vehicle: saline with Tween-80
[5] = dose: 400.0 mg/kg/injection, schedule: Q04DX003 (ip), vehicle: saline with Tween-80
[6] = dose: 200.0 mg/kg/injection, schedule: Q01DX001 (ip), vehicle: saline
[7] = dose: 400.0 mg/kg/injection, schedule: Q01DX001 (ip), vehicle: saline
[8] = dose: 100.0 mg/kg/injection, schedule: Q01DX009 (ip), vehicle: Klucel (hydroxypropylcellulose) (HPC)
[9] = dose: 200.0 mg/kg/injection, schedule: Q01DX009 (ip), vehicle: Klucel (hydroxypropylcellulose) (HPC)
[10] = dose: 400.0 mg/kg/injection, schedule: Q01DX009 (ip), vehicle: Klucel (hydroxypropylcellulose) (HPC)
[11] = dose: 25.0 mg/kg/injection, schedule: Q04DX003 (ip), vehicle: saline
[12] = dose: 50.0 mg/kg/injection, schedule: Q04DX003 (ip), vehicle: saline
[13] = dose: 100.0 mg/kg/injection, schedule: Q01DX009 (ip), vehicle: saline
[14] = dose: 100.0 mg/kg/injection, schedule: Q04DX003 (ip), vehicle: saline
[15] = dose: 200.0 mg/kg/injection, schedule: Q04DX003 (ip), vehicle: saline
[16] = dose: 100.0 mg/kg/injection, schedule: Q01DX009 (ip), vehicle: saline with Tween-80
[17] = dose: 200.0 mg/kg/injection, schedule: Q01DX009 (ip), vehicle: saline with Tween-80
[18] = dose: 100.0 mg/kg/injection, schedule: Q01DX009 (ip), vehicle: acetone

Measured: T/C

Cc1nnn2ccccc12
inactive: dose: 25.0 mg/kg/injection, schedule: Q01DX001 (ip), vehicle: saline 96 % of control | [1] 100 % of control | [2] 100 % of control

COc1ccc2c(c1OC(C)=O)-c1cc(OC(C)=O)cc3c1C(C2)N(C)CC3 (stereo not drawn)
inactive: dose: 25.0 mg/kg/injection, schedule: Q04DX003 (ip), vehicle: DMSO 93 % of control | dose: 50.0 mg/kg/injection, schedule: Q04DX003 (ip), vehicle: DMSO 95 % of control | dose: 100.0 mg/kg/injection, schedule: Q04DX003 (ip), vehicle: DMSO 106 % of control

O=c1ccoc(-c2cc(=O)cco2)c1
inactive: dose: 25.0 mg/kg/injection, schedule: Q04DX003 (ip), vehicle: saline with Tween-80 97 % of control | dose: 50.0 mg/kg/injection, schedule: Q04DX003 (ip), vehicle: saline with Tween-80 93 % of control | [3] 95 % of control

Cc1ccc(C[n+]2cccc(NC(=O)COc3ccc(Cl)c(Cl)c3)c2)cc1
inactive: [3] 95 % of control | [4] 93 % of control | [5] 98 % of control

CC(=O)Oc1ccccc1OC(=S)N(C)C
inactive: [3] 106 % of control | [4] 111 % of control | [5] 105 % of control

NC(CC1C=CC=CC1)C(=O)O (stereo not drawn)
inactive: [1] 108 % of control | [2] 102 % of control | [6] 98 % of control | [7] 96 % of control

NC(=S)NN=C1CCCCCCCCCC1
inactive: [1] 101 % of control | [2] 101 % of control | [6] 97 % of control | [7] 106 % of control

C/C=C/C=N/NC(=O)c1ccccc1O
inactive: [8] 102 % of control | [9] 105 % of control | [10] 94 % of control

O=C1Nc2c(Cl)cccc2C1=O
inactive: dose: 25.0 mg/kg/injection, schedule: Q01DX009 (ip), vehicle: saline 92 % of control | [11] 98 % of control | dose: 50.0 mg/kg/injection, schedule: Q01DX009 (ip), vehicle: saline 94 % of control | [12] 98 % of control | [13] 92 % of control | [14] 96 % of control

O=C(Nc1ccc(S(=O)(=O)F)cc1)c1ccc(C(=O)Nc2ccc(S(=O)(=O)F)cc2)cc1
inactive: dose: 100.0 mg/kg/injection, schedule: Q01DX001 (ip), vehicle: carboxymethylcellulose (CMC) 102 % of control | dose: 200.0 mg/kg/injection, schedule: Q01DX001 (ip), vehicle: carboxymethylcellulose (CMC) 101 % of control | dose: 400.0 mg/kg/injection, schedule: Q01DX001 (ip), vehicle: carboxymethylcellulose (CMC) 96 % of control

CC1(c2ccc(N(CCCl)CCCl)cc2)NC(=O)NC1=O (stereo not drawn)
inactive: dose: 12.5 mg/kg/injection, schedule: Q04DX003 (ip), vehicle: saline 98 % of control | [11] 103 % of control | [12] 103 % of control | [14] 113 % of control | [15] 121 % of control

CCOC(=O)COc1ccc(Cl)cc1
inactive: [8] 97 % of control | [9] 103 % of control | [10] 92 % of control

O=Cc1[nH]c(=S)[nH]c(=O)c1Cc1ccc([N+](=O)[O-])cc1
inactive: [3] 93 % of control | [4] 92 % of control | [5] 100 % of control

FC1(F)SC2c3cccc4cccc(c34)C2C1(F)F (stereo not drawn)
inactive: [16] 102 % of control | [17] 104 % of control | dose: 400.0 mg/kg/injection, schedule: Q01DX009 (ip), vehicle: saline with Tween-80 96 % of control

Cc1ccc(C2=NN(c3ccccc3)C(c3ccccc3)C2NC2CCCCC2)cc1 (stereo not drawn)
inactive: [18] 86 % of control | dose: 400.0 mg/kg/injection, schedule: Q01DX009 (ip), vehicle: acetone 100 % of control

O=C(O)c1cocc1C(=O)N1Cc2cc3ccccc3nc2C1
inactive: dose: 10.0 mg/kg/injection, schedule: Q04DX003 (ip), vehicle: saline 103 % of control | dose: 20.0 mg/kg/injection, schedule: Q04DX003 (ip), vehicle: saline 97 % of control | dose: 40.0 mg/kg/injection, schedule: Q04DX003 (ip), vehicle: saline 105 % of control | dose: 80.0 mg/kg/injection, schedule: Q04DX003 (ip), vehicle: saline 100 % of control | dose: 160.0 mg/kg/injection, schedule: Q04DX003 (ip), vehicle: saline 103 % of control

CC(C)(C)c1ccc(O)cc1
inactive: [16] 89 % of control

Cc1ccc(S(=O)(=O)N2CCOCCOCCOc3ccc4ccccc4c3-c3c(ccc4ccccc34)OCCOCC2)cc1
inactive: dose: 100.0 mg/kg/injection, schedule: Q01DX001 (ip), vehicle: saline with Tween-80 95 % of control | dose: 200.0 mg/kg/injection, schedule: Q01DX001 (ip), vehicle: saline with Tween-80 88 % of control | dose: 400.0 mg/kg/injection, schedule: Q01DX001 (ip), vehicle: saline with Tween-80 95 % of control

O=C1OC(c2ccc(Cl)cc2)=N/C1=C\c1c(Cl)cccc1Cl
inactive: dose: 100.0 mg/kg/injection, schedule: Q04DX002 (ip), vehicle: saline 93 % of control | dose: 200.0 mg/kg/injection, schedule: Q04DX002 (ip), vehicle: saline 107 % of control | dose: 400.0 mg/kg/injection, schedule: Q04DX002 (ip), vehicle: saline 118 % of control

O=C(O)c1ccc2cc(O)ccc2c1
inactive: [14] 92 % of control | [15] 98 % of control | dose: 400.0 mg/kg/injection, schedule: Q04DX003 (ip), vehicle: saline 97 % of control

CC1=CC(=O)C(C)(C)CC1
inactive: dose: 50.0 mg/kg/injection, schedule: Q01DX009 (ip), vehicle: saline with Tween-80 96 % of control | [16] 92 % of control | [17] 100 % of control

CCC1=CCN2CCC34c5cc(C6(C(=O)OC)CC7CC(CC)CN(CCc8c6[nH]c6ccccc86)C7)c(OC)cc5N(C)C3C(O)(C(=O)OC)C(OC(C)=O)C1C24 (stereo not drawn)
inactive: dose: 0.8 mg/kg/injection, schedule: Q01DX001 (ip), vehicle: saline 100 % of control | dose: 1.6 mg/kg/injection, schedule: Q01DX001 (ip), vehicle: saline 100 % of control | dose: 3.2 mg/kg/injection, schedule: Q01DX001 (ip), vehicle: saline 101 % of control | dose: 6.4 mg/kg/injection, schedule: Q01DX001 (ip), vehicle: saline 97 % of control

OC(CC(O)(C(F)(F)F)C(F)(F)F)c1ccccc1 (stereo not drawn)
inactive: [3] 103 % of control | [4] 96 % of control | [5] 97 % of control

Ic1ccccc1C[N+]12CN3CN(CN(C3)C1)C2
inactive: dose: 15.0 mg/kg/injection, schedule: Q01DX015 (ip), vehicle: carboxymethylcellulose (CMC) 101 % of control | dose: 30.0 mg/kg/injection, schedule: Q01DX015 (ip), vehicle: carboxymethylcellulose (CMC) 92 % of control | dose: 60.0 mg/kg/injection, schedule: Q01DX015 (ip), vehicle: carboxymethylcellulose (CMC) 92 % of control | dose: 100.0 mg/kg/injection, schedule: Q01DX001 (ip), vehicle: acetone 101 % of control | [18] 96 % of control | dose: 100.0 mg/kg/injection, schedule: Q04DX003 (ip), vehicle: acetone 100 % of control | dose: 120.0 mg/kg/injection, schedule: Q01DX015 (ip), vehicle: carboxymethylcellulose (CMC) 103 % of control | dose: 200.0 mg/kg/injection, schedule: Q01DX001 (ip), vehicle: acetone 101 % of control | dose: 200.0 mg/kg/injection, schedule: Q01DX009 (ip), vehicle: acetone 94 % of control | dose: 200.0 mg/kg/injection, schedule: Q04DX003 (ip), vehicle: acetone 100 % of control | dose: 400.0 mg/kg/injection, schedule: Q01DX001 (ip), vehicle: acetone 94 % of control | dose: 400.0 mg/kg/injection, schedule: Q04DX003 (ip), vehicle: acetone 93 % of control

CC(=O)n1cc(/C=C2\N=C(c3ccc([N+](=O)[O-])cc3)OC2=O)c2ccccc21
inactive: dose: 100.0 mg/kg/injection, schedule: Q04DX002 (ip), vehicle: saline with Tween-80 95 % of control | dose: 200.0 mg/kg/injection, schedule: Q04DX002 (ip), vehicle: saline with Tween-80 109 % of control | dose: 400.0 mg/kg/injection, schedule: Q04DX002 (ip), vehicle: saline with Tween-80 92 % of control

CC(=O)ON1C(=O)c2ccccc2C1=O
inactive: [1] 102 % of control | [2] 100 % of control | [6] 102 % of control

C=CCNC(=O)C(Br)(CC)CC
inactive: [13] 92 % of control | [14] 96 % of control | dose: 200.0 mg/kg/injection, schedule: Q01DX009 (ip), vehicle: saline 92 % of control | [15] 96 % of control
